Experiment: Compound was evaluated for functional potency and efficacy at human muscle type Nicotinic acetylcholine receptor in TE671 cells

SMILES: CC(=O)C1=CC[N+](C)(C)CC1 [4-Acetyl-1,1-dimethyl-1,2,3,6-tetrahydro-pyridinium; iodide]
- EC50: 100 nM

Source: BindingDB's records for doi:10.1021/jm970377o (Abbott Laboratories, 1998)
